These results are taken from patent US11053218B2, “3-(1-oxoisoindolin-2-yl)piperidine-2,6-dione derivatives and uses thereof” (Novartis AG, priority 2017, dated 2021).

Test [1] concerns the target IKZF2 (Homo sapiens, UniProt Q96SW2+Q9UKS7). In words: Prolabel quantification of IKZF2 protein levels in 293GT cells. It counts as cell-based. To be noted: 293GT cells; for inhibition at 10 µM: 24 h, read-out: IKZF2 % protein reduction at 10 μM, 24 h; for DC50: Prolabel assay, read-out: IKZF2 EC50.
Test [2] has as its target IKZF1 (Homo sapiens, UniProt Q13422+Q96SW2). In words: Prolabel quantification of IKZF1 protein levels in 293GT cells. It counts as cell-based. To be noted: Prolabel assay, read-out: IKZF1 EC50.

Structures can show the parent of a compound that is named as a salt.

Sequence of IKZF1 (Q13422 whole entry): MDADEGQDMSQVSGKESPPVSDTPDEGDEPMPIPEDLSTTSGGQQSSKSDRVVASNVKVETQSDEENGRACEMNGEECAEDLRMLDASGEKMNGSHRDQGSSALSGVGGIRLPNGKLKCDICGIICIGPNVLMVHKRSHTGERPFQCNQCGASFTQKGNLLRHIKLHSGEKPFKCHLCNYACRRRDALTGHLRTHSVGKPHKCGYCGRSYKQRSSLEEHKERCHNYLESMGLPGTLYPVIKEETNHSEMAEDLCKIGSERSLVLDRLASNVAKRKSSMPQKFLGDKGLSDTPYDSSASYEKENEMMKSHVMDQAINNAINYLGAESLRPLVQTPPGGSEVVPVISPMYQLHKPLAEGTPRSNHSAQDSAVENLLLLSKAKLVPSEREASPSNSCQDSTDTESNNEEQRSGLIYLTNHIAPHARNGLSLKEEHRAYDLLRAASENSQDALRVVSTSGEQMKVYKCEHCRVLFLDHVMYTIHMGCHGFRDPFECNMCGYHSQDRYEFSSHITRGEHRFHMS
Sequence of IKZF1 (Q96SW2 whole entry): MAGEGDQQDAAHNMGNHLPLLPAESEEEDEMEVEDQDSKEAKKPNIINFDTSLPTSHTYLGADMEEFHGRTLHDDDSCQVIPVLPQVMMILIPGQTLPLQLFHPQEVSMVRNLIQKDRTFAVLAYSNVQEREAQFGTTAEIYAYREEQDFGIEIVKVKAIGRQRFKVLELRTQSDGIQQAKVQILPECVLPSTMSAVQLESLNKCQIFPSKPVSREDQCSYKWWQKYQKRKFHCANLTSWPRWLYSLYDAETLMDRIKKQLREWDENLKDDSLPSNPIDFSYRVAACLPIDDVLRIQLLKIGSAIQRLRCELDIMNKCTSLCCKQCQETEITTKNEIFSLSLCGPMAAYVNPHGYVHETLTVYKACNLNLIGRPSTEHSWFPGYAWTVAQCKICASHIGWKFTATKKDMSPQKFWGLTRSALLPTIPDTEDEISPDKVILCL
Sequence of IKZF1 (Q16531 whole entry partner): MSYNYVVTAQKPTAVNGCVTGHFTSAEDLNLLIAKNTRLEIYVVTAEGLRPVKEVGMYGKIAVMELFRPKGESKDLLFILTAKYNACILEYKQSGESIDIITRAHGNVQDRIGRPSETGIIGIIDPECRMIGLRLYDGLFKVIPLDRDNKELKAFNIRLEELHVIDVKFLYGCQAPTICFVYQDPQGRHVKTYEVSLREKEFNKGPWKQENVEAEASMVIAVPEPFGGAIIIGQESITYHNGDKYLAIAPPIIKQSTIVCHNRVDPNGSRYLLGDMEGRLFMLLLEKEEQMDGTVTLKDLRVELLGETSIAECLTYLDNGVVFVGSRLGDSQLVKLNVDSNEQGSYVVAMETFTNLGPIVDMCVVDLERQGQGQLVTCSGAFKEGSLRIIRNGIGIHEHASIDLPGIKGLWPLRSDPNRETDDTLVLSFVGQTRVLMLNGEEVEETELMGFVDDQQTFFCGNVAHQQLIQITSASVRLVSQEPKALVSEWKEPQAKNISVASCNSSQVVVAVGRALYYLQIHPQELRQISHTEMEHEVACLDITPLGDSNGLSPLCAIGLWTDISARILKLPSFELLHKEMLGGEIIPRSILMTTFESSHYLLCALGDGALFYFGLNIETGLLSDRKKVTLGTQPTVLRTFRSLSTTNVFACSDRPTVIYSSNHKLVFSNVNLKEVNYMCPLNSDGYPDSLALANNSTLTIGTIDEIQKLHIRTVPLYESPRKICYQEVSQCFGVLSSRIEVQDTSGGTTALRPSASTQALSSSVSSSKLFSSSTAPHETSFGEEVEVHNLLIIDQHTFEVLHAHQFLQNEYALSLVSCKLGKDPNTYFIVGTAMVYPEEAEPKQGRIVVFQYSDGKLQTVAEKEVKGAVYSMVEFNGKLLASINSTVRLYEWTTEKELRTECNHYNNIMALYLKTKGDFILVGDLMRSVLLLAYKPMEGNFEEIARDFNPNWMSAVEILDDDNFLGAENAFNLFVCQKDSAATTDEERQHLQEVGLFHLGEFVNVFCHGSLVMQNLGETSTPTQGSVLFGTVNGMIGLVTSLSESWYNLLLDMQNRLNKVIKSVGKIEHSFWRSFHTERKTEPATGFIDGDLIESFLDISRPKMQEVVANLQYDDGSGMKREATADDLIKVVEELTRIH
Sequence of IKZF2 (Q9UKS7 whole entry): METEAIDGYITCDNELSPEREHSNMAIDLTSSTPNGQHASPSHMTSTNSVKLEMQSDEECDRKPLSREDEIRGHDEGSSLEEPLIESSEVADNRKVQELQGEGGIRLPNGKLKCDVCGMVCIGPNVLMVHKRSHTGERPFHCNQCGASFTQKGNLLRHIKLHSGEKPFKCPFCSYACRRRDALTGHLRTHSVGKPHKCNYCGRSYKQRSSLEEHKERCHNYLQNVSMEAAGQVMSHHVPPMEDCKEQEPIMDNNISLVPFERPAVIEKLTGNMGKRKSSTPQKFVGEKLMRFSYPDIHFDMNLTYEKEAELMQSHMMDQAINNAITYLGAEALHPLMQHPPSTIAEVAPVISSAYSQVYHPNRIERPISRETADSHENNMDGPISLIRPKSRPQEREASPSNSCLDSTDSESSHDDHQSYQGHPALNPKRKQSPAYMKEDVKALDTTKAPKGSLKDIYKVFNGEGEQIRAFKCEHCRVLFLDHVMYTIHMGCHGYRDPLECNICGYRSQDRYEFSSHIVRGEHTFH
Sequence of IKZF2 (Q96SW2 whole entry): as the sequence (Q96SW2 whole entry) above
Sequence of IKZF2 (Q16531 whole entry partner): as the sequence (Q16531 whole entry partner) above

In the case of `Cc1cn(C)c(CN2CCC(c3ccc4c(c3)CN(C3CCC(=O)NC3=O)C4=O)CC2)n1` (stereo not drawn) [Compound I-129, 3-(5-(1-((1,4-dimethyl-1H-imidazol-2-yl)methyl)piperidin-4-yl)-1-oxoisoindolin-2-yl)piperidine-2,6-dione], in test [1], the inhibition at 10 µM is 40%. For the same compound, the DC50 in test [1] was 190 nM; in test [2], above 30000 nM.

As to `O=C1CCC(N2Cc3cc(C4CCN(Cc5ccc(F)cc5F)CC4)ccc3C2=O)C(=O)N1` (stereo not drawn) [Compound I-101, 3-(5-(1-(2,4-difluorobenzyl)piperidin-4-yl)-1-oxoisoindolin-2-yl)piperidine-2,6-dione], in test [1], the inhibition at 10 µM turned out to be 60% and the DC50 turned out to be 17 nM. The DC50 in test [2] was above 30000 nM.

On to `O=C1CCC(N2Cc3cc(C4CCN(CC5CC5)CC4)ccc3C2=O)C(=O)N1` (stereo not drawn) [Compound I-3, 3-(5-(1-(cyclopropylmethyl)piperidin-4-yl)-1-oxoisoindolin-2-yl)piperidine-2,6-dione], for which, in test [1], the inhibition at 10 µM turned out to be 60% and the DC50 is 23 nM. In test [2], the DC50 is above 30000 nM.

With `O=C1CCC(N2Cc3cc(C4CCN(C(c5ccccc5)C(F)F)CC4)ccc3C2=O)C(=O)N1` (stereo not drawn) [Compound I-209, 3-(5-(1-(2,2-difluoro-1-phenylethyl)piperidin-4-yl)-1-oxoisoindolin-2-yl)piperidine-2,6-dione], in test [1], the inhibition at 10 µM worked out at 40% and the DC50 was 140 nM. Further, the DC50 in test [2] was above 30000 nM.

Turning to `CC(C)n1nccc1CN1CCC(c2ccc3c(c2)CN(C2CCC(=O)NC2=O)C3=O)CC1` (stereo not drawn) [Compound I-289, 3-(5-(1-((1-isopropyl-1H-pyrazol-5-yl)methyl)piperidin-4-yl)-1-oxoisoindolin-2-yl)piperidine-2,6-dione], in test [1], the inhibition at 10 µM was 60% and the DC50 was determined as 76 nM. The DC50 in test [2] is above 30000 nM.

With `O=C1CCC(N2Cc3cc(C4CCN(Cc5ccc(OCc6ccccn6)cc5)CC4)ccc3C2=O)C(=O)N1` (stereo not drawn) [Compound I-255, 3-(1-oxo-5-(1-(4-(pyridin-2-ylmethoxy)benzyl)piperidin-4-yl)isoindolin-2-yl)piperidine-2,6-dione], in test [1], the inhibition at 10 µM amounted to 60% and the DC50 was 49 nM. Further, the DC50 in test [2] was above 30000 nM.

`NC(=O)c1nc(CN2CCC(c3ccc4c(c3)CN(C3CCC(=O)NC3=O)C4=O)CC2)no1` (stereo not drawn) [Compound I-235, 3-((4-(2-(2,6-dioxopiperidin-3-yl)-1-oxoisoindolin-5-yl)piperidin-1-yl)methyl)-1,2,4-oxadiazole-5-carboxamide]: in test [1], the inhibition at 10 µM turned out to be 40% and the DC50 was 2440 nM. Besides, the DC50 in test [2] is above 30000 nM.

As to `COc1ccccc1CN1CCC(c2ccc3c(c2)CN(C2CCC(=O)NC2=O)C3=O)CC1` (stereo not drawn) [Compound I-67, 3-(5-(1-(2-methoxybenzyl)piperidin-4-yl)-1-oxoisoindolin-2-yl)piperidine-2,6-dione], in test [1], the inhibition at 10 µM amounted to 70% and the DC50 came to 58 nM. In test [2], the DC50 is above 30000 nM.

As to `O=C1CCC(N2Cc3cc(C4CCN(Cc5cccc(OC(F)F)c5)CC4)ccc3C2=O)C(=O)N1` (stereo not drawn) [Compound I-79, 3-(5-(1-(3-(difluoromethoxy)benzyl)piperidin-4-yl)-1-oxoisoindolin-2-yl)piperidine-2,6-dione], the inhibition at 10 µM in test [1] is 75%. Also, the DC50 in test [1] was 3 nM; in test [2] it was above 30000 nM.

Consider `CCn1ccc(CN2CCC(c3ccc4c(c3)CN(C3CCC(=O)NC3=O)C4=O)CC2)n1` (stereo not drawn) [Compound I-121, 3-(5-(1-((1-ethyl-1H-pyrazol-3-yl)methyl)piperidin-4-yl)-1-oxoisoindolin-2-yl)piperidine-2,6-dione], for which, in test [1], the inhibition at 10 µM worked out at 60% and the DC50 stood at 62 nM. In test [2], the DC50 is above 30000 nM.

For the compound `C[C@H](c1ccccc1)N1CCC(c2ccc3c(c2)CN(C2CCC(=O)NC2=O)C3=O)CC1` (single isomer, unassigned) [Compound I-247], the inhibition at 10 µM in test [1] amounted to 70%. The DC50 in test [1] was 17 nM; in test [2], above 30000 nM.

Take `O=C1CCC(N2Cc3cc(C4CCN(Cc5ccc(OC(F)(F)F)cc5)CC4)ccc3C2=O)C(=O)N1` (stereo not drawn) [Compound I-51, 3-(1-oxo-5-(1-(4-(trifluoromethoxy)benzyl)piperidin-4-yl)isoindolin-2-yl)piperidine-2,6-dione]: the inhibition at 10 µM in test [1] came out at 60%. In addition, the values for the DC50 in test [1] and in test [2] were 15 nM and above 30000 nM, respectively.

Consider `O=C1CCC(N2Cc3cc(C4CCN(Cc5ncon5)CC4)ccc3C2=O)C(=O)N1` (stereo not drawn) [Compound I-204, 3-(5-(1-((1,2,4-oxadiazol-3-yl)methyl)piperidin-4-yl)-1-oxoisoindolin-2-yl)piperidine-2,6-dione], for which, in test [1], the inhibition at 10 µM amounted to 0% and the DC50 was above 50000 nM. The DC50 in test [2] is above 50000 nM.

As for `O=C1CCC(N2Cc3cc(C4CCN(Cc5cc[nH]c5)CC4)ccc3C2=O)C(=O)N1` (stereo not drawn) [Compound I-119, 3-(5-(1-((1H-pyrrol-3-yl)methyl)piperidin-4-yl)-1-oxoisoindolin-2-yl)piperidine-2,6-dione], the inhibition at 10 µM in test [1] stood at 65%. The DC50 in test [1] is 140 nM; in test [2], above 30000 nM.

Regarding `Cc1cc(CN2CCC(c3ccc4c(c3)CN(C3CCC(=O)NC3=O)C4=O)CC2)on1` (stereo not drawn) [Compound I-245, 3-(5-(1-((3-methylisoxazol-5-yl)methyl)piperidin-4-yl)-1-oxoisoindolin-2-yl)piperidine-2,6-dione], the inhibition at 10 µM in test [1] was determined as 40%. Also, the DC50 is 37 nM in test [1] and above 50000 nM in test [2].

For the compound `O=C1CCC(N2Cc3cc(C4CCN(Cc5cnc6ncccn56)CC4)ccc3C2=O)C(=O)N1` (stereo not drawn) [Compound I-132, 3-(5-(1-(imidazo[1,2-a]pyrimidin-3-ylmethyl)piperidin-4-yl)-1-oxoisoindolin-2-yl)piperidine-2,6-dione], in test [1], the inhibition at 10 µM is 60% and the DC50 came to 1080 nM. Besides, the DC50 in test [2] was above 30000 nM.

For the compound `O=C1CCC(N2Cc3cc(C4CCN(Cc5ccccc5)C4)ccc3C2=O)C(=O)N1` (stereo not drawn) [Compound I-260, 3-(5-(1-benzylpyrrolidin-3-yl)-1-oxoisoindolin-2-yl)piperidine-2,6-dione HC(O)OH Salt], in test [1], the inhibition at 10 µM came out at 20% and the DC50 was above 30000 nM. In addition, the DC50 in test [2] was above 30000 nM.

In the case of `Nc1ccc(CN2CCC(c3ccc4c(c3)CN(C3CCC(=O)NC3=O)C4=O)CC2)cn1` (stereo not drawn) [Compound I-123, 3-(5-(1-((6-aminopyridin-3-yl)methyl)piperidin-4-yl)-1-oxoisoindolin-2-yl)piperidine-2,6-dione], the inhibition at 10 µM in test [1] was 75%. For the same compound, the DC50 in test [1] was 69 nM; in test [2], above 30000 nM.

On to `COCc1ccc(CN2CCC(c3ccc4c(c3)CN(C3CCC(=O)NC3=O)C4=O)CC2)cc1` (stereo not drawn) [Compound I-248, 3-(5-(1-(4-(methoxymethyl)benzyl)piperidin-4-yl)-1-oxoisoindolin-2-yl)piperidine-2,6-dione], for which the inhibition at 10 µM in test [1] came to 70%. The figures for the DC50 in test [1] and in test [2] were 16 nM and above 30000 nM, respectively.

Turning to `O=C1CCC(N2Cc3cc(C4=CCCNC4)ccc3C2=O)C(=O)N1` (stereo not drawn) [Compound I-282, 3-(1-oxo-5-(1,2,5,6-tetrahydropyridin-3-yl)isoindolin-2-yl)piperidine-2,6-dione], in test [1], the inhibition at 10 µM is 0% and the DC50 was above 30000 nM. The DC50 in test [2] was above 30000 nM.
